Results: patent US11472799B2, “Serine threonine kinase (AKT) degradation / disruption compounds and methods of use” (Icahn School of Medicine at Mount Sinai, priority 2018, dated 2022)

Each compound was assayed on AKT (assay: Western blot of AKT protein levels and downstream signaling in BT474 cells). Conditions: Western blot (FIGS. 1, 3, 4).
Assay type: cell-based, human
Protocol: PC-3, U87MG, HCC1143, MDA-MB-231, MDA-MB-468, BT474 and MCF-7 cell lines were purchased from ATCC. Cell lines were regularly tested in the lab for mycoplasma. All cells were cultured at 37° C. and 5% CO2. PC-3, U87MG, MDA-MB-231, MCF-7 and BT474 cells were cultured in 1×DMEM (Corning, 10-013-CV) with 10% fetal bovine serum (Atlanta Biologicals S11150) and 1× Penicillin/Streptomycin. HCC1143 cells were cultured in RPMI (Corning, 10-040-CV) medium with 10% fetal bovine serum (Atlanta Biologicals S11150) and 1× Penicillin/Streptomycin. Cells were split using 0.05% or 0.25% trypsin (Corning 25-051-Cl or 25-053-Cl, respectively) before they reached full confluence and media was changed every 3-4 days. Cells were treated with compounds individually at different concentrations for 24 hrs. Cells were treated with DMSO, VHL, or PML alone as controls.
Cells were lysed in 2× sample buffer (125 mM Tris-HCl at pH 6.8, 10% βME, 2% SDS, 20% glycerol, 0.05% Bromophenol Blue, 8 M urea). Protein lysates were loaded into 4-12% Bis-Tris gels and resolved by electrophoresis. Samples were then blotted on PVDF membrane (Millipore IPVH00010) using the wet transfer technique (Invitrogen). Membranes were blocked in 5% milk-TBST for 1 hour, washed in TBST for 10 min, and incubated in primary antibody in 5% milk-TBST or 5% BSA-TBST at 4° C. for 16 h. Membranes were rinsed (3×6 min) in TBST and incubated in horseradish peroxidase-conjugated secondary antibodies in 5% milk-TBST for 1 hour and rinsed again in TBST (3×6 min). Membranes were visualized using the chemiluminescence system (Thermo 34080, 37075) on autoradiography film (Denville E3018). Primary Antibodies: R-actin (Sigma A5316), p-AKT (Ser473 CST-9721), total AKT (CST-9272), p-S6 (Ser240/244, CST-5364), p-PRAS40 (Thr246, CST-2997). Secondary Antibodies: Mouse (Thermo 31432), Rabbit (Thermo 31460).
In the case of NC1(C(=O)N[C@@H](CCN2CCN(C(=O)CCOCCOCCOCCOCCOCCOCCOCCOCCOCCNc3cccc4c3C(=O)N(C3CCC(=O)NC3=O)C4=O)CC2)c2ccc(Cl)cc2)CCN(c2ncnc3[nH]ccc23)CC1 (stereo partly drawn) [XF056-35, 4-amino-N-((1S)-1-(4-chlorophenyl)-3-(4-(1-((2-(2,6-dioxopiperidin-3-yl)-1,3-dioxoisoindolin-4-yl)amino)-3,6,9,12,15,18,21,24,27-nonaoxatriacontan-30-oyl)piperazin-1-yl)propyl)-1-(7H-pyrrolo[2,3-d]pyrimidin-4-yl)piperidine-4-carboxamide], the “suppression of AKT protein level and AKT activity” value (“suppression” for short) is reported as “effective in suppressing both AKT protein level and AKT activity”. With NC1(C(=O)N[C@@H](CCN2CCN(C(=O)CCOCCOCCOCCOCCNc3cccc4c3C(=O)N(C3CCC(=O)NC3=O)C4=O)CC2)c2ccc(Cl)cc2)CCN(c2ncnc3[nH]ccc23)CC1 (stereo partly drawn) [XF050-32, 4-amino-N-((1S)-1-(4-chlorophenyl)-3-(4-(1-((2-(2,6-dioxopiperidin-3-yl)-1,3-dioxoisoindolin-4-yl)amino)-3,6,9,12-tetraoxapentadecan-15-oyl)piperazin-1-yl)propyl)-1-(7H-pyrrolo[2,3-d]pyrimidin-4-yl)piperidine-4-carboxamide] the “suppression” value was “effective in suppressing both AKT protein level and AKT activity”. With C[C@@H]1C[C@@H](O)c2ncnc(N3CCN(C(=O)[C@H](CNCCC(=O)NCCOCCOCCOCCOCCOCCNc4cccc5c4C(=O)N(C4CCC(=O)NC4=O)C5=O)c4ccc(Cl)cc4)CC3)c21 (stereo partly drawn) [XF038-177A, 3-(((S)-2-(4-chlorophenyl)-3-(4-((5R,7R)-7-hydroxy-5-methyl-6,7-dihydro-5H-cyclopenta[d]pyrimidin-4-yl)piperazin-1-yl)-3-oxopropyl)amino)-N-(17-((2-(2,6-dioxopiperidin-3-yl)-1,3-dioxoisoindolin-4-yl)amino)-3,6,9,12,15-pentaoxaheptadecyl) propanamide] the “suppression” value was “effective in suppressing both AKT protein level and AKT activity”. In the case of Cc1ncsc1-c1ccc(CNC(=O)[C@@H]2C[C@@H](O)CN2C(=O)[C@@H](NC(=O)COCCOCC(=O)N2CCN(CC[C@H](NC(=O)C3(N)CCN(c4ncnc5[nH]ccc45)CC3)c3ccc(Cl)cc3)CC2)C(C)(C)C)cc1 [XF050-7, 4-amino-N-((S)-1-(4-chlorophenyl)-3-(4-(2-(2-(2-(((S)-1-((2S,4R)-4-hydroxy-2-((4-(4-methylthiazol-5-yl)benzyl)carbamoyl)pyrrolidin-1-yl)-3,3-dimethyl-1-oxobutan-2-yl)amino)-2-oxoethoxy)ethoxy)acetyl)piperazin-1-yl)propyl)-1-(7H-pyrrolo[2,3-d]pyrimidin-4-yl)piperidine-4-carboxamide], the “suppression” value is reported as “effective in suppressing both AKT protein level and AKT activity”. For Cc1ncsc1-c1ccc(CNC(=O)[C@@H]2C[C@@H](O)CN2C(=O)[C@@H](NC(=O)CCCCC(=O)N2CCN(CC[C@H](NC(=O)C3(N)CCN(c4ncnc5[nH]ccc45)CC3)c3ccc(Cl)cc3)CC2)C(C)(C)C)cc1 [XF050-16, 4-amino-N-((S)-1-(4-chlorophenyl)-3-(4-(6-(((S)-1-((2S,4R)-4-hydroxy-2-((4-(4-methylthiazol-5-yl)benzyl)carbamoyl)pyrrolidin-1-yl)-3,3-dimethyl-1-oxobutan-2-yl)amino)-6-oxohexanoyl)piperazin-1-yl)propyl)-1-(7H-pyrrolo[2,3-d]pyrimidin-4-yl)piperidine-4-carboxamide], the “suppression” value was “effective in suppressing both AKT protein level and AKT activity”.
